From ChEMBL document CHEMBL1671702, “Baseline genotypic and phenotypic susceptibilities of HIV-1 group O to enfuvirtide” (Antimicrob Agents Chemother, 2010)
The source made the active and inactive calls. The calls are words filed in the database; no cut-off is given here.

Legend:
[1] = tested on: Human immunodeficiency virus type 1 (BRU ISOLATE); test: Antiviral activity against Human immunodeficiency virus type 1 (BRU ISOLATE); assay type: functional
[2] = tested on: Human immunodeficiency virus 2; test: Antiviral activity against Human immunodeficiency virus type 2 (ISOLATE ROD); assay type: functional, organism-based
[3] = tested on: Human immunodeficiency virus 1; test: Antiviral activity against HIV-1 group O; settings: Human immunodeficiency virus 1, group O
[4] = tested on: Human immunodeficiency virus 1; test: Antiviral activity against HIV-1 group O expressing gp41 N42D, N43K mutant gene; assay type: functional
[5] = tested on: Human immunodeficiency virus 1; test: Antiviral activity against HIV-1 group M; settings: Human immunodeficiency virus 1, group M
[6] = tested on: Human immunodeficiency virus 1; test: Antiviral activity against HIV-1 group O expressing gp41 T27A mutant gene; assay type: functional
[7] = tested on: Human immunodeficiency virus 1; test: Antiviral activity against HIV-1 group O expressing gp41 E119Q mutant gene; assay type: functional

Substance: enfuvirtide
- Activity [1]: Active
- Activity [2]: inactive
- IC50 [3]: 4 nM
- IC50 [4]: 6.4 nM
- IC50 [5]: 6.4 nM
- IC50 [6]: > 1000 nM
- IC50 [7]: > 1000 nM
